Measurements from PubChem BioAssay (NCI).
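Cells were grown in 96-well plates and exposed to each compound for 48 hours at five concentrations; endpoints were interpolated linearly between bracketing concentrations, or set to the highest concentration if not reached. GI50 = concentration required for 50% inhibition of growth. TGI marks complete inhibition of growth.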

Experiments:
Assay in all cases: inhibition of tumour cell growth, NCI panel, 48 h
PC-3 prostate = test system: PC-3 prostate
T-47D breast = test system: T-47D breast
UO-31 renal = test system: UO-31 renal
MOLT-4 leukemia = test system: MOLT-4 leukemia
HOP-92 NSCLC = test system: HOP-92 NSCLC
HS 578T breast = test system: HS 578T breast
SF-539 CNS = test system: SF-539 CNS
SNB-19 CNS = test system: SNB-19 CNS
LOX IMVI melanoma = test system: LOX IMVI melanoma
OVCAR-5 ovarian = test system: OVCAR-5 ovarian
SK-MEL-5 melanoma = test system: SK-MEL-5 melanoma
SK-MEL-2 melanoma = test system: SK-MEL-2 melanoma
SF-295 CNS = test system: SF-295 CNS
BT-549 breast = test system: BT-549 breast
SN12C renal = test system: SN12C renal
SK-OV-3 ovarian = test system: SK-OV-3 ovarian
NCI-H226 lung = test system: NCI-H226 lung
HT29 colon = test system: HT29 colon
A498 renal = test system: A498 renal
NCI-H522 lung = test system: NCI-H522 lung
DU-145 prostate = test system: DU-145 prostate
SNB-75 CNS = test system: SNB-75 CNS
MDA-MB-435 = test system: MDA-MB-435
NCI-H460 lung = test system: NCI-H460 lung
NCI-H23 lung = test system: NCI-H23 lung
786-0 renal = test system: 786-0 renal
HCT-15 colon = test system: HCT-15 colon
COLO 205 colon = test system: COLO 205 colon
TK-10 renal = test system: TK-10 renal
OVCAR-3 ovarian = test system: OVCAR-3 ovarian
OVCAR-4 ovarian = test system: OVCAR-4 ovarian
KM12 colon = test system: KM12 colon
K-562 leukemia = test system: K-562 leukemia
M14 melanoma = test system: M14 melanoma
SF-268 CNS = test system: SF-268 CNS
RPMI-8226 leukemia = test system: RPMI-8226 leukemia
IGROV1 ovarian = test system: IGROV1 ovarian
SR leukemia = test system: SR leukemia
U251 CNS = test system: U251 CNS
HOP-62 NSCLC = test system: HOP-62 NSCLC
HCC-2998 colon = test system: HCC-2998 colon
CAKI-1 renal = test system: CAKI-1 renal
OVCAR-8 ovarian = test system: OVCAR-8 ovarian
MCF7 breast = test system: MCF7 breast
SK-MEL-28 melanoma = test system: SK-MEL-28 melanoma
RXF 393 renal = test system: RXF 393 renal
MALME-3M melanoma = test system: MALME-3M melanoma
HCT-116 colon = test system: HCT-116 colon
MDA-MB-231 breast = test system: MDA-MB-231 breast
NCI/ADR-RES ovarian = test system: NCI/ADR-RES ovarian
UACC-62 melanoma = test system: UACC-62 melanoma
UACC-257 melanoma = test system: UACC-257 melanoma
ACHN renal = test system: ACHN renal
HL-60(TB) leukemia = test system: HL-60(TB) leukemia
SW-620 colon = test system: SW-620 colon
CCRF-CEM leukemia = test system: CCRF-CEM leukemia
A549 NSCLC = test system: A549 NSCLC

## C=C(C)[C@@H]1CC[C@]2(C(=O)O)CC[C@]3(C)[C@H](CC[C@@H]4[C@@]5(C)C[C@@H](CC#Cc6ccc(Br)cc6)C(=O)C(C)(C)[C@@H]5CC[C@]43C)[C@@H]12
PC-3 prostate
  GI50: 3.31 µM
  TGI: 15.2 µM
T-47D breast
  GI50: 9.02 µM
  TGI: > 100 µM
UO-31 renal
  GI50: > 100 µM
  TGI: > 100 µM
MOLT-4 leukemia
  GI50: 4.44 µM
  TGI: > 100 µM
HOP-92 NSCLC
  GI50: 17 µM
  TGI: 36.4 µM
HS 578T breast
  GI50: 6.26 µM
  TGI: > 100 µM
SF-539 CNS
  GI50: 22.5 µM
  TGI: > 100 µM
SNB-19 CNS
  GI50: 6.19 µM
  TGI: 64.8 µM
LOX IMVI melanoma
  GI50: 5.65 µM
  TGI: > 100 µM
OVCAR-5 ovarian
  GI50: 94.3 µM
  TGI: > 100 µM
SK-MEL-5 melanoma
  GI50: 34.2 µM
  TGI: > 100 µM
SK-MEL-2 melanoma
  GI50: 2580 nM
  TGI: 9.48 µM
SF-295 CNS
  GI50: 12.6 µM
  TGI: 81.1 µM
BT-549 breast
  GI50: 21 µM
  TGI: 55 µM
SN12C renal
  GI50: 2990 nM
  TGI: 9.25 µM
SK-OV-3 ovarian
  GI50: 20.2 µM
  TGI: > 100 µM
NCI-H226 lung
  GI50: 24.2 µM
  TGI: > 100 µM
HT29 colon
  GI50: 4.83 µM
  TGI: > 100 µM
A498 renal
  GI50: 2420 nM
  TGI: 7.29 µM
NCI-H522 lung
  GI50: 2950 nM
  TGI: 75 µM
DU-145 prostate
  GI50: 7.59 µM
  TGI: > 100 µM
SNB-75 CNS
  GI50: 13.5 µM
  TGI: 34.6 µM
MDA-MB-435
  GI50: 4.94 µM
  TGI: > 100 µM
NCI-H460 lung
  GI50: 5.71 µM
  TGI: > 100 µM
NCI-H23 lung
  GI50: 3.83 µM
  TGI: 23.9 µM
786-0 renal
  GI50: 5.27 µM
  TGI: 22.2 µM
HCT-15 colon
  GI50: 25.8 µM
  TGI: > 100 µM
COLO 205 colon
  GI50: 18.2 µM
  TGI: > 100 µM
TK-10 renal
  GI50: 23.7 µM
  TGI: > 100 µM
OVCAR-3 ovarian
  GI50: 4.73 µM
  TGI: > 100 µM
OVCAR-4 ovarian
  GI50: 4.95 µM
  TGI: > 100 µM
KM12 colon
  GI50: 4.54 µM
  TGI: > 100 µM
K-562 leukemia
  GI50: 15.6 µM
  TGI: > 100 µM
M14 melanoma
  GI50: 2670 nM
  TGI: 12.2 µM
SF-268 CNS
  GI50: 6.23 µM
  TGI: > 100 µM
RPMI-8226 leukemia
  GI50: 9.08 µM
  TGI: > 100 µM
IGROV1 ovarian
  GI50: 4.07 µM
  TGI: 24.9 µM
SR leukemia
  GI50: 9.33 µM
  TGI: > 100 µM
U251 CNS
  GI50: 2120 nM
  TGI: 6.72 µM
HOP-62 NSCLC
  GI50: 12.4 µM
  TGI: 38.4 µM
HCC-2998 colon
  GI50: 36 µM
  TGI: > 100 µM
CAKI-1 renal
  GI50: 15.6 µM
  TGI: > 100 µM
OVCAR-8 ovarian
  GI50: 5.84 µM
  TGI: > 100 µM
MCF7 breast
  GI50: 4.94 µM
  TGI: > 100 µM
SK-MEL-28 melanoma
  GI50: 2620 nM
  TGI: 8.25 µM
RXF 393 renal
  GI50: 5.5 µM
  TGI: 21.8 µM
MALME-3M melanoma
  GI50: 3.48 µM
  TGI: 14.1 µM
HCT-116 colon
  GI50: 4.34 µM
  TGI: 83.3 µM
MDA-MB-231 breast
  GI50: 3.67 µM
  TGI: 14.8 µM
NCI/ADR-RES ovarian
  GI50: 62.6 µM
  TGI: > 100 µM
UACC-62 melanoma
  GI50: 2690 nM
  TGI: 8.34 µM
UACC-257 melanoma
  GI50: > 100 µM
  TGI: > 100 µM
ACHN renal
  GI50: 13.5 µM
  TGI: > 100 µM
HL-60(TB) leukemia
  GI50: 22.4 µM
  TGI: > 100 µM
SW-620 colon
  GI50: 3.73 µM
  TGI: > 100 µM
CCRF-CEM leukemia
  GI50: 3.57 µM
  TGI: > 100 µM
A549 NSCLC
  GI50: 2800 nM
  TGI: > 100 µM
